For the assay, the system named is collagenase derived from Clostridium histolyticum. The assay can be described thus: Inhibition of collagenase (fluorescence assay with fluorogenic peptide substrate). Format: biochemical. The following applies: for Average % inhibition: average of replicates; for Inhibition Rate of collagenase (%): individual replicate. Here is the method:
The collagenase inhibitory activity of aqueous and ethanol extracts of Cornus officinalis Sieb. et Zucc., Potentilla glabra Lodd. var. mandshurica (Maxim.) Hand.-Mazz, Amomum kravanh Pierre ex Gagnep, and Bombax ceiba Linnaeus were evaluated. The sample mixture (10 μL), 10 μg/mL of the enzyme (collagenase derived from Clostridium histolyticum) and 50 mM Tricine buffer (pH 7.5), was added to a 96-well microtiter plate. […] After a 10 minute incubation at 37° C., the substrate solution ((7-methoxycoumarin-4-yl)acetyl-L-prolyl-L-leucylglycyl-L-leucyl-[Nβ-(2,4-dinitrophenyl)-L-2,3-diaminopropionyl]-Lalanyl-L-arginine amide) was added to obtain a final concentration of 10 μM, and was allowed to react. The fluorescence values were measured after 0 minutes and 30 minutes incubation at 37° C., at an excitation of 320 nm and an emission of 405 nm, using a fluorescence plate reader (EnSpire, Perkin Elmer, Inc., Japan). EGCG was used as a positive control. The average rates of inhibition can also be appreciated with reference to the Figures.

One compound from patent US20260124132A1, “COMPOSITION AND METHOD FOR INHIBITING COLLAGENASE ACTIVITY” (ACCESS BUSINESS GROUP INTERNATIONAL LLC, priority 2022, published 2026) can be followed below.

“And” between values parts separate entries of the source, which are not always exact repeats. Equal values may be shown once.

For `O=C(O[C@@H]1Cc2c(O)cc(O)cc2O[C@@H]1c1cc(O)c(O)c(O)c1)c1cc(O)c(O)c(O)c1` [EGCG, epigallocatechin gallate], the Average % inhibition was 19.10% (concentration 31.25 μg/ml); 29.58% (concentration 62.5 μg/ml); 39.38% (concentration 125 μg/ml); 54.90% (concentration 250 μg/ml); 80.36% (concentration 500 μg/ml); 106.38% (concentration 1000 μg/ml). Also, the “Inhibition Rate of collagenase (%)” value (concentration 31.25 μg/ml) was 18.13% and 16.96% and 22.22%; the “Inhibition Rate of collagenase (%)” value (concentration 62.5 μg/ml) was 31.14% and 27.49% and 30.12%; the “Inhibition Rate of collagenase (%)” value (concentration 125 μg/ml) is 41.37% and 35.23% and 41.52%; the “Inhibition Rate of collagenase (%)” value (concentration 250 μg/ml) was 52.78% and 57.02%; the “Inhibition Rate of collagenase (%)” value (concentration 500 μg/ml) is 79.53% and 80.99% and 80.56%; the “Inhibition Rate of collagenase (%)” value (concentration 1000 μg/ml) is 107.75% and 106.58% and 104.82%.
